Measurements as given in patent publication US20230158157A1, “POTENT AND SELECTIVE DEGRADERS OF ALK” (DANA-FARBER CANCER INSTITUTE, INC., priority 2020, published 2023).
pIC50: −log10 of the molar value. Read-outs that look alike come from different tables or passages of the source. Values belong to the compound of their own block, whether it stands above or below them.

Key:
[1] = tested on: H3122 cells; assay: CTG; assay type: cell-based
[2] = biological target: T1, EML4-ALK (Homo sapiens, UniProt Q9UM73); assay: EML4-ALK HiBit degradation assay in CRISPR-tagged H3122 cells (Nano-Glo HiBit Lytic Detection); assay type: cell-based
T1 construct: endogenous in cells; host or cells: H3122 (NSCLC), single-cell clone after CRISPR knock-in of HiBit; the other entry of the earlier key: EML4 (Q9HC35, Echinoderm microtubule-associated protein-like 4)
Protocol: (§1) NSCLC cell line H3122 was subjected to CRISPR to express EML4-ALK with HiBit-tag on its c-terminal. Single-cell clone was selected and expanded for the following assays that monitor endogenous EML4-ALK level in high throughput manner. Cells were seeded in 384-well white Tissue-culture plates at 3000 cells/well for 8 hours. […] HiBit signal was assessed using Nano-Glo® HiBit Lytic Detection System (Promega™). Degrader-treated was normalized by DMSO-treated controls and DC50 and Dmax were generated by GraphPad Prism® 8.0.
as §1, with “its c-terminus. A single-cell” for “its c-terminal. Single-cell”, “Degrader-treated cells were” for “Degrader-treated was”
as §1, with “its C-terminus. A single-cell” for “its c-terminal. Single-cell”, “Degrader-treated cells were” for “Degrader-treated was”

[3] = Homo sapiens, NCI-H3122, Table 2, read-out: CTG IC50
[4] = NCI-H3122, Table 2, first Dmax column, H3122 EML4-ALK-HiBit, 16 hours, read-out: Degradation Dmax
[5] = Table 2, first DC50 column, H3122 EML4-ALK-HiBit, 16 hours, read-out: Degradation DC50

T1 sequence (Q9UM73 with tags, fused parts or gaps): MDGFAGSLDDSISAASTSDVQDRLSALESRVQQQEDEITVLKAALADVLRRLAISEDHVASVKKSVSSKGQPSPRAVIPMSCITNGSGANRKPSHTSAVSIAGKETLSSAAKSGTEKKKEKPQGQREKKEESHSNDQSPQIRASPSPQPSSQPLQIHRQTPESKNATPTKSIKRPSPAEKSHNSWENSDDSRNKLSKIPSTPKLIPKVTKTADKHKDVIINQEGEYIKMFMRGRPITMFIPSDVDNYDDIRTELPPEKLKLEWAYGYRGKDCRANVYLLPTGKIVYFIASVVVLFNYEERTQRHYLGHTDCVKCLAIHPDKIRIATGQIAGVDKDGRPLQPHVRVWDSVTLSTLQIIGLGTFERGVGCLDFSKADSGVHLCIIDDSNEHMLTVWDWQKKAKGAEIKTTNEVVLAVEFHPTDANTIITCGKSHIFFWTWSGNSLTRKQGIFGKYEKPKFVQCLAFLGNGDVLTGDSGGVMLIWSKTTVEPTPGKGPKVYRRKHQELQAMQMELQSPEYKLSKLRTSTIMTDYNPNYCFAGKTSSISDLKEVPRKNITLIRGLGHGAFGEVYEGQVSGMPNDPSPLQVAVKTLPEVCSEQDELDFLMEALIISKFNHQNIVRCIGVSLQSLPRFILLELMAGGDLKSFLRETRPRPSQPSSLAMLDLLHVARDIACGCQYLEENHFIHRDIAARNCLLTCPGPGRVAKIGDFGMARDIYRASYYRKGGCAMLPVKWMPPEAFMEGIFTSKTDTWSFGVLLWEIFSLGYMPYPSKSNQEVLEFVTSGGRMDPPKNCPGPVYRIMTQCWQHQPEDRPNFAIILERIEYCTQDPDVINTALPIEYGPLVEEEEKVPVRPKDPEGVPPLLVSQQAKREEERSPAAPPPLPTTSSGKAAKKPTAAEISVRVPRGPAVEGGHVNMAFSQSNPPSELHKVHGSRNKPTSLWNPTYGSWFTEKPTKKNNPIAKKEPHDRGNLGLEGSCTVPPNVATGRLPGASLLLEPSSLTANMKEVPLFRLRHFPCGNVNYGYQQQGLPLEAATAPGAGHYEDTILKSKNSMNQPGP

pIC50 [1, 3]: < 5.00
SMILES: COc1cc(CCN(C)C(=O)CCCCCNC(=O)COc2cccc3c2C(=O)N(C2CCC(=O)NC2=O)C3=O)c(C)cc1Nc1ncc(Cl)c(Nc2ccccc2P(C)(C)=O)n1 (stereo not shown) [Compound 58]

pIC50 ([1]; Table 2, read-out: CTG IC50): < 5.00
SMILES: COc1cc(CCN(C)C(=O)CCOCCOCCNC(=O)COc2cccc3c2C(=O)N(C2CCC(=O)NC2=O)C3=O)c(C)cc1Nc1ncc(Cl)c(Nc2ccccc2P(C)(C)=O)n1 (stereo not shown) [Compound 60]

pIC50 [1, 3]: 6.52
SMILES: COc1cc(CCN(C)C(=O)CCCNc2cccc3c2C(=O)N(C2CCC(=O)NC2=O)C3=O)c(C)cc1Nc1ncc(Cl)c(Nc2ccccc2P(C)(C)=O)n1 (stereo not shown) [Compound 64]

pIC50 [1, 3]: 5.64
SMILES: COc1cc(CCN(C)C(=O)CCOCCOCCNc2cccc3c2C(=O)N(C2CCC(=O)NC2=O)C3=O)c(C)cc1Nc1ncc(Cl)c(Nc2ccccc2P(C)(C)=O)n1 (stereo not shown) [Compound 67]

pIC50 [1, 3]: 6.43
SMILES: COc1cc(CCN(C)C(=O)CCCCCCC(=O)N[C@H](C(=O)N2C[C@H](O)CC2C(=O)N[C@@H](C)c2ccc(-c3scnc3C)cc2)C(C)(C)C)c(C)cc1Nc1ncc(Cl)c(Nc2ccccc2P(C)(C)=O)n1 (stereo partly drawn) [compound 70, N^1-(4-((5-chloro-4-((2-(dimethylphosphoryl)phenyl)amino)pyrimidin-2-yl)amino)-5-methoxy-2-methylphenethyl)-N^8-((S)-1-((2S,4R)-4-hydroxy-2-(((S)-1-(4-(4-methylthiazol-5-yl)phenyl)ethyl)carbamoyl)pyrrolidin-1-yl)-3,3-dimethyl-1-oxobutan-2-yl)-N′-methyloctanediamide]

Continued, compound first:

SMILES: CC[C@@H](NC(=O)[C@@H]1C[C@H](NC(=O)CCCCCCC(=O)N(C)CCc2cc(OC)c(Nc3ncc(Cl)c(Nc4ccccc4P(C)(C)=O)n3)cc2C)CN1C(=O)[C@@H](NC(=O)[C@H](C)NC)C(C)(C)C)c1ccccc1 [Compound 74]
Dmax [2, 4]: 47.1% | Dmax ([2]; NCI-H3122, Table 2, second Dmax column, H3122 EML4-ALK-HiBit, 16 hours, read-out: Degradation Dmax): 47.2% | Dmax ([2]; NCI-H3122, Table 2, average Dmax, read-out: Degradation Avg. Dmax): 47.1% | DC50 [2, 5]: 0.506 µM | DC50 ([2]; Table 2, second DC50 column, H3122 EML4-ALK-HiBit, 16 hours, read-out: Degradation DC50): 0.48 µM | DC50 ([2]; Table 2, average DC50, read-out: Degradation Avg. DC50): 0.49 µM

SMILES: COc1cc(CCNCCCCCC#Cc2cccc3c2C(=O)N(C2CCC(=O)NC2=O)C3=O)c(C)cc1Nc1ncc(Cl)c(Nc2ccccc2S(=O)(=O)C(C)C)n1 (stereo not shown) [compound 49, 4-(7-((4-((5-chloro-4-((2-(isopropylsulfonyl)phenyl)amino)pyrimidin-2-yl)amino)-5-methoxy-2-methylphenethyl)amino)hept-1-yn-1-yl)-2-(2,6-dioxopiperidin-3-yl)isoindoline-1,3-dione]
pIC50 ([1]; Homo sapiens, NCI-H3122, read-out: CTG IC50): 7.02 | pIC50 ([1]; Homo sapiens, NCI-H3122, Table 1, read-out: CTG IC50): 7.17

SMILES: COc1cc(CCN(C)C(=O)CCCCCCCC(=O)N[C@H](C(=O)N2C[C@H](O)C[C@H]2C(=O)N[C@@H](C)c2ccc(-c3scnc3C)cc2)C(C)(C)C)c(C)cc1Nc1ncc(Cl)c(Nc2ccccc2P(C)(C)=O)n1 [compound 69, N^1-(4-((5-chloro-4-((2-(dimethylphosphoryl)phenyl)amino)pyrimidin-2-yl)amino)-5-methoxy-2-methylphenethyl)-N^9-((S)-1-((2S,4R)-4-hydroxy-2-(((S)-1-(4-(4-methylthiazol-5-yl)phenyl)ethyl)carbamoyl)pyrrolidin-1-yl)-3,3-dimethyl-1-oxobutan-2-yl)-N^1-methylnonanediamide]
pIC50 [1, 3]: 6.32

SMILES: CC[C@@H](NC(=O)[C@@H]1C[C@H](NC(=O)CCCCCCCC(=O)N(C)CCc2cc(OC)c(Nc3ncc(Cl)c(Nc4ccccc4P(C)(C)=O)n3)cc2C)CN1C(=O)[C@@H](NC(=O)[C@H](C)NC)C(C)(C)C)c1ccccc1 [compound 75, N^1-(4-((5-chloro-4-((2-(dimethylphosphoryl)phenyl)amino)pyrimidin-2-yl)amino)-5-methoxy-2-methylphenethyl)-N^9-((3S,5S)-1-((S)-3,3-dimethyl-2-((S)-2-(methylamino)propanamido)butanoyl)-5-(((R)-1-phenylpropyl)carbamoyl)pyrrolidin-3-yl)-N^1-methylnonanediamide]
Dmax [2, 4]: 42.1% | DC50 [2, 5]: 0.381 µM
